# Laboratory results taken from ChEMBL document CHEMBL4325904 (Eur J Med Chem, 2019).
# Columns and labels:
# [1] = biological target: Histone deacetylase 3/Nuclear receptor corepressor 2 (HDAC3/NCoR2) (Homo sapiens, UniProt O15379); assay type: cell-based
# [2] = biological target: T1, Protein deacetylase HDAC6 (Homo sapiens, UniProt Q9UBN7); experiment: Inhibition of recombinant N-terminal GST-tagged human HDAC6 (1 to 1215 residues) expressed in Baculovirus infected insect cells using RHKK-Ac as substrate by fluorimetric assay
# T1 sequence (Q9UBN7 whole entry): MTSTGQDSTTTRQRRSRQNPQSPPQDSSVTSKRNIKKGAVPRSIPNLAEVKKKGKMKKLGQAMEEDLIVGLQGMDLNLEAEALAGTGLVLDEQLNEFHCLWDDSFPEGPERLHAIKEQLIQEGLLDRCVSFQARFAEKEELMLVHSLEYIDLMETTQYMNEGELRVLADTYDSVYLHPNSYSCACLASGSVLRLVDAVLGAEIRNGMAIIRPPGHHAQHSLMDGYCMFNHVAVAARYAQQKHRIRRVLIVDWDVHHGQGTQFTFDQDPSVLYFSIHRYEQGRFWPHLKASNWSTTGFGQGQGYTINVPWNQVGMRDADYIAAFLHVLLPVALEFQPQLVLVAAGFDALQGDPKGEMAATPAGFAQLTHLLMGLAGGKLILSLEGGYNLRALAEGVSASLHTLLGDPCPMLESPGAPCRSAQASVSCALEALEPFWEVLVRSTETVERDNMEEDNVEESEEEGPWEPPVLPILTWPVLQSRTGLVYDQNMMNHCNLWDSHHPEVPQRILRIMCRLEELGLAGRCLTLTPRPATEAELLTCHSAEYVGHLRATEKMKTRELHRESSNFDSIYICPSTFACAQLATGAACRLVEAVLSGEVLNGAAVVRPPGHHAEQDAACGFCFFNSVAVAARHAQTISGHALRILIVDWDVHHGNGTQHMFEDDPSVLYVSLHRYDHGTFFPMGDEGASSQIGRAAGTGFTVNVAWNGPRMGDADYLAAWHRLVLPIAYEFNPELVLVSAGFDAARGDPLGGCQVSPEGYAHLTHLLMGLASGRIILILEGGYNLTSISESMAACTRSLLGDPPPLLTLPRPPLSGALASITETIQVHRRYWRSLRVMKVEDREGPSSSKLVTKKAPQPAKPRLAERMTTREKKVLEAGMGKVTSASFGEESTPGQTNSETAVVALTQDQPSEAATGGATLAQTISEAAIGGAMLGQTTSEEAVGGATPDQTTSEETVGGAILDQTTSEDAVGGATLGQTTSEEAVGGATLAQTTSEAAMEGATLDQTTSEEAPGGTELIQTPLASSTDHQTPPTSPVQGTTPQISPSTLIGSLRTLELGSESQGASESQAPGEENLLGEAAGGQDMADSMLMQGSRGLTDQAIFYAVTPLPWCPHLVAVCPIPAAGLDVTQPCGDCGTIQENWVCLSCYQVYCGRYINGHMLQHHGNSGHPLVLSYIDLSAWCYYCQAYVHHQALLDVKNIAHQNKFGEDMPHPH
# Histone deacetylase 8 = biological target: T2, Histone deacetylase 8 (Homo sapiens, UniProt Q9BY41); experiment: Inhibition of recombinant C-terminal His-tagged human HDAC8 (1 to 377 residues) expressed in Baculovirus infected insect cells using RHK-K(Ac)-AMC as substrate by fluorimetric assay
# T2 sequence (Q9BY41 whole entry): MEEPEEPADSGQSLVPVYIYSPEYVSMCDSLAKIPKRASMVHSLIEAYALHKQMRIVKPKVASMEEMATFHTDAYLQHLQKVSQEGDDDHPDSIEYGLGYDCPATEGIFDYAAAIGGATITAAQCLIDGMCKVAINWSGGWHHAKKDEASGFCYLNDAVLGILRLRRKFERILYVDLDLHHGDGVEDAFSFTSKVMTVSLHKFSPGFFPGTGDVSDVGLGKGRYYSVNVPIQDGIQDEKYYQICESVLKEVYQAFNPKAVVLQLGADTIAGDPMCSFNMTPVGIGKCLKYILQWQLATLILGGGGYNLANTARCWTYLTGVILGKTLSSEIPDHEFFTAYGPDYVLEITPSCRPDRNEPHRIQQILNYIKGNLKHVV
# Histone deacetylase 11 = biological target: T3, Histone deacetylase 11 (Homo sapiens, UniProt Q96DB2); experiment: Inhibition of recombinant C-terminal His-tagged human HDAC11 (1 to 347 residues) expressed in Baculovirus infected insect cells using RHKK-Ac as substrate by fluorimetric assay
# T3 sequence (Q96DB2 whole entry): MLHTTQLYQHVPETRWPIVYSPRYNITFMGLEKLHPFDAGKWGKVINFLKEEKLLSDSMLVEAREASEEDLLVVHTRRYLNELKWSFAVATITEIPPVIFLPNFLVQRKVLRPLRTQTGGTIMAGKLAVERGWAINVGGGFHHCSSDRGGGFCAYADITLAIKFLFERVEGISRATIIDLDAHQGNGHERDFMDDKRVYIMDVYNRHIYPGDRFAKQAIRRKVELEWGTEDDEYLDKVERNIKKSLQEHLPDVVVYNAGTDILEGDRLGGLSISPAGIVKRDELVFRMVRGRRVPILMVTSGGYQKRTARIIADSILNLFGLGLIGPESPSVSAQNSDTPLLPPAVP
# Histone deacetylase 3/Nuclear receptor corepressor 2 (HDAC3/NCoR2), sequence (O15379 whole entry, the tested form may be a part): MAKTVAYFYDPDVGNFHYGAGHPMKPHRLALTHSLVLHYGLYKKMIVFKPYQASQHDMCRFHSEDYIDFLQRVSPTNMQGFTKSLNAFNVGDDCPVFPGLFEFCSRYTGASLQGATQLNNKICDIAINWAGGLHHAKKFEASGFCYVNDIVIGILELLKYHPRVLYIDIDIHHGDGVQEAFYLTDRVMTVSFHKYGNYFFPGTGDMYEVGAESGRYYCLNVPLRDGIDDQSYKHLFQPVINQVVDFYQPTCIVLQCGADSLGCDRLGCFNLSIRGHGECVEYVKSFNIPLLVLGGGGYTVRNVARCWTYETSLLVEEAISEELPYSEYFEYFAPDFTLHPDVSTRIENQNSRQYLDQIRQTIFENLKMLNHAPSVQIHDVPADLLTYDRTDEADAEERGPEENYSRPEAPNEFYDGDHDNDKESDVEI
# Histone deacetylase 3/Nuclear receptor corepressor 2 (HDAC3/NCoR2), sequence (Q9Y618 whole entry, further chain, the tested form may be a part): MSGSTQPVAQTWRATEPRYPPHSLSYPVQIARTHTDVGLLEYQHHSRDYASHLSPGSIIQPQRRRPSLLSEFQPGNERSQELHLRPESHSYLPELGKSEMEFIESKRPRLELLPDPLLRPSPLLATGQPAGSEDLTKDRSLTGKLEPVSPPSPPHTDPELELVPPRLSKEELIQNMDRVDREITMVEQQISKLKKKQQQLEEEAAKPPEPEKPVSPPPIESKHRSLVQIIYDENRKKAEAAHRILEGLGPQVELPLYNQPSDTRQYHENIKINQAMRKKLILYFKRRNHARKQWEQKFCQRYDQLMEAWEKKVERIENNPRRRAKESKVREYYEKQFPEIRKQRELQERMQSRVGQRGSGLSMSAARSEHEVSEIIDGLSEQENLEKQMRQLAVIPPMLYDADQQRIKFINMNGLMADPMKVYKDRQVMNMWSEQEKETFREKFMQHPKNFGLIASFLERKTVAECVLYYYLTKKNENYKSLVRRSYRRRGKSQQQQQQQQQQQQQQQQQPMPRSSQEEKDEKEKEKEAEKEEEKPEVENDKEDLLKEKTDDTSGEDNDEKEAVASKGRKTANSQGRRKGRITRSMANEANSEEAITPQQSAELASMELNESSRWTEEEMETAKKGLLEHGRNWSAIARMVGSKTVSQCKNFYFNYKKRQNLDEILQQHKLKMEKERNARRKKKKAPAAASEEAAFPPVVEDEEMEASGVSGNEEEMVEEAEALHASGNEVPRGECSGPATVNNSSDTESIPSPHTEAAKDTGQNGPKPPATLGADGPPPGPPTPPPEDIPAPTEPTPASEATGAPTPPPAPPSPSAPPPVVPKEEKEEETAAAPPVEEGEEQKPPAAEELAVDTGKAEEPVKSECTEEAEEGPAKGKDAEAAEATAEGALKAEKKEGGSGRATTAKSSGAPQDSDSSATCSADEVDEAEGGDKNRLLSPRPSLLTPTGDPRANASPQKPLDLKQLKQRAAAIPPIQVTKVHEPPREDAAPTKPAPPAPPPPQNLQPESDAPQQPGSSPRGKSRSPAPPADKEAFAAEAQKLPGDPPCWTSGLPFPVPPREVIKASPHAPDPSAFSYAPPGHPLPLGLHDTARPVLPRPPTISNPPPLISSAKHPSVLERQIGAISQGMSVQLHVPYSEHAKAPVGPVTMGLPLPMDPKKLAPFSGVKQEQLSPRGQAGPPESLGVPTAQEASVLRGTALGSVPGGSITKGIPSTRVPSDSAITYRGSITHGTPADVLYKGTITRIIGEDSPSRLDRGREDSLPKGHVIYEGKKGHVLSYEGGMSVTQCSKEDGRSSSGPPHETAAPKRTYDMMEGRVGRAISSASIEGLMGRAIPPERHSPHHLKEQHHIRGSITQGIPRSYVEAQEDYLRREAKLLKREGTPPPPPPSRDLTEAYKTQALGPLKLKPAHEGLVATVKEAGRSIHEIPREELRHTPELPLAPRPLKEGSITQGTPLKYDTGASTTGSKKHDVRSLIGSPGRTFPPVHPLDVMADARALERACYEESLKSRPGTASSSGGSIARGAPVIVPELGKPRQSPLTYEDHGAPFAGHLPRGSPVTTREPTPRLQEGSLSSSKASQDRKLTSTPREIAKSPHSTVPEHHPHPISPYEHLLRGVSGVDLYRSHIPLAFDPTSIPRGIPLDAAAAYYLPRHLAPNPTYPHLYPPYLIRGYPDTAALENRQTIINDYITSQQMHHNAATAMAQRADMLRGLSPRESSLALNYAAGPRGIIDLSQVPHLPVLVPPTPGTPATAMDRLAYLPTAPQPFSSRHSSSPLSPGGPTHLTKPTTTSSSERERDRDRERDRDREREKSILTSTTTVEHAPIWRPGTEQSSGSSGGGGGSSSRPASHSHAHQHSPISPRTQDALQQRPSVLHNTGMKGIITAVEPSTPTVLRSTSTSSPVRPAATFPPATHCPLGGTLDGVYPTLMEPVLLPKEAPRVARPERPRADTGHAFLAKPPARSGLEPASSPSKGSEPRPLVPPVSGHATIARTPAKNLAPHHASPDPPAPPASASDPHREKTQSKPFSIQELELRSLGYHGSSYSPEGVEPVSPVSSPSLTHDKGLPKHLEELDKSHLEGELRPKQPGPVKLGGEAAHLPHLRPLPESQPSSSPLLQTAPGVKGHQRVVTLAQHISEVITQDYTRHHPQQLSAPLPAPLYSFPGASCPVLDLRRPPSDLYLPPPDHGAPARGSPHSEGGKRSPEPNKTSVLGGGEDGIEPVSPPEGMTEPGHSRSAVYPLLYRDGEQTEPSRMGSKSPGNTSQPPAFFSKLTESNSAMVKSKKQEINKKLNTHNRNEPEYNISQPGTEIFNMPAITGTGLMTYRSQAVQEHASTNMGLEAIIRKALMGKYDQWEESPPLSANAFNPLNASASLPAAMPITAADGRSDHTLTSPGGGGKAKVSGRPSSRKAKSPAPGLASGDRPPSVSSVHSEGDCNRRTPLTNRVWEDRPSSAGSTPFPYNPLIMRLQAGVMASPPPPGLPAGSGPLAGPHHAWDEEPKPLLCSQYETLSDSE
SMILES,IC50 [1] [µM],IC50 [2] [µM],IC50 (Histone deacetylase 8) [µM],IC50 (Histone deacetylase 11) [µM]
O=C(CCCCCN1C(=O)c2cccc3c(NCc4ccccc4)ccc(c23)C1=O)NO,0.36,0.0035,2.46,0.15
CCCNc1ccc2c3c(cccc13)C(=O)N(CCCCCC(=O)NO)C2=O,0.11,0.0048,1.52,0.08
